Source: patent EP4455292A1, “A METHOD FOR DETECTING ECTOINE” (Kaunas University of Technology, priority 2023, dated 2024)

Key:
[1] = tested on: ectoine-inducible system EutR/PeutB; experiment: P. putida-based ectoine biosensor (plasmid pEct-1), RFP reporter fluorescence response; assay type: cell-based
Description: (§1) The fluorescence and cell absorbance were measured at multiple time points. Freshly grown bacterial cells were used to inoculate 2 mL of MM containing appropriate antibiotics in 50-mL centrifuge tubes, and cell cultures were grown overnight at 200 rpm and 30 °C. To obtain logarithmically growing cells, E. coli and P. putida overnight cultures were diluted to 0.05 OD600, respectively, in 5 mL of fresh medium with antibiotic. After the cells were grown to an OD600 of 0.15-0.2, culture aliquots of 142.5 µL were transferred into flat and clear bottom black 96-well plate (Corning Incorporated) and 7.5 µL of ectoine or hydroxyectoine was added to each culture to the required final concentration. Absorbance and fluorescence of cultures were measured using an Infinite Nano+ microplate reader (Tecan). Multiple time point measurements were taken every 10 min over the course of 15-20 hours with a plate reader measuring RFP fluorescence at excitation and emission wavelengths set to 585 nm and 620 nm, respectively, and absorbance at 600 nm. Obtained fluorescence and absorbance values were corrected by subtracting the autofluorescence and absorbance of the culture medium. The absolute normalized fluorescence was determined dividing the fluorescence value by corresponding absorbance value.
The dose-response of biosensors was determined by using single time-point values of fluorescence and absorbance, […] ranging from 0 to 5 mM. […] The fluorescence and absorbance were measured using the same conditions and plate reader as indicated above.
The plasmid pEct-1 was used to characterize biosensor's response to exogenously added ectoine. […] To evaluate biosensor's response to the ectoine, the fluorescence output was quantified.
First, the time course experiments were performed in E. coli and P. putida. […] The fluorescence continued to increase throughout the course of 20-hour time course experiment. Importantly, the uninduced baseline (no ectoine) remained at 0 fluorescence units. […]

AraC-PBAD = settings: prior-art AraC-PBAD sensor, E. coli; cited from earlier work
[2] = tested on: ectoine-inducible system EutR/PeutB; experiment: E. coli-based ectoine biosensor (plasmid pEct-1), RFP reporter fluorescence response; assay type: cell-based
Description: as §1
The dose-response of biosensors was determined by using single time-point values of fluorescence and absorbance, which were obtained from the multiple time-point measurements 4 h after supplementation of ectoine or hydroxyectoine at different concentrations ranging from 0 to 5 mM. For all assays, the cultures of E. coli and P. putida were prepared as described above, and 142.5 µL of logarithmically growing cells, supplemented with 7.5 µL of ectoine or hydroxyectoine, were cultured in 96-well plate. The fluorescence and absorbance were measured using the same conditions and plate reader as indicated above.
The plasmid pEct-1 was used to characterize biosensor's response to exogenously added ectoine. Experiments were performed to determine the kinetics of induction establishing the time that is required for the system to respond to a change in the ectoine and the dose response of the system. To evaluate biosensor's response to the ectoine, the fluorescence output was quantified.
First, the time course experiments were performed in E. coli and P. putida. Accordingly, cells of both microorganisms harbouring the plasmid pEct-1, were cultivated in minimal medium (MM) at 200 rpm and 30° C (E. coli: Cm 50 mg/L; P. putida: Tet 12.5 mg/L), in the presence and absence of 1 mM ectoine; their optical density (OD600) and RFP fluorescence were monitored over time (Figure 3). In both microorganisms, the RFP expression above the level of the uninduced culture started with 60-90 minutes delay after addition of ectoine (Figure 3 and Figure 4) supporting the notion that the ectoine's catabolic product, the alpha-ADABA, as identified previously [Schultz et al (2017) Environ. Microbiol. 19(11), 4599-4619; Hermann et al (2021) Front. Microbiol. 12, 764731] is the effector that activates gene expression in P. putida. The fluorescence continued to increase throughout the course of 20-hour time course experiment. Importantly, the uninduced baseline (no ectoine) remained at 0 fluorescence units. […] Such "non-leaky" system helps improving the quantification accuracy of reporter fluorescence, but also can be used to control the gene expression that can be harmful or even toxic to a cell. […]

[3] = MM, 10 hours after supplementation, text does not separate the two hosts
[4] = E. coli, MM, 10 hours after supplementation, text does not separate the two hosts

## CC1=NC(C(=O)O)CCN1 (stereo not drawn) [ectoine, 1,4,5,6-tetrahydro-2-methyl-4-pyrimidinecarboxylic acid]
[1]; 1 mM ectoine, 30° C
  delay of RFP expression above the level of the uninduced culture after addition of ectoine: 60 to 90 min
[1]; [3]
  limit of detection: below 1 µM
  range of linear fluorescence response to exogenously present ectoine: 1 to 20 µM
AraC-PBAD
  minimal ectoine concentration needed for observable induction: around 10 mM
[2]; 1 mM ectoine, MM, 30° C, E. coli
  delay of RFP expression above the level of the uninduced culture after addition of ectoine: 60 to 90 min
[2]; E. coli expression organism
  fold lower minimal ectoine concentration needed for observable induction (applicant's sensor vs AraC-PBAD sensor): around 1000 fold
[2]; [4]
  limit of detection: below 1 µM
  range of linear fluorescence response to exogenously present ectoine: 1 to 20 µM
[2]; Escherichia coli, applicant's sensor, E. coli expression organism, read-out: minimal ectoine concentration needed for observable induction
  minimal effective concentration: 1 µM
